From PubChem BioAssay (NCI)
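At the GI50, growth is halved. Definition used: TGI = concentration required for complete inhibition of growth.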

Tests used:
Experiment in all cases: DTP human tumour cell line panel, 384-well format
786-0 renal = system: 786-0 renal
A498 renal = system: A498 renal
A549 NSCLC = system: A549 NSCLC
ACHN renal = system: ACHN renal
BT-549 breast = system: BT-549 breast
CAKI-1 renal = system: CAKI-1 renal
CCRF-CEM leukemia = system: CCRF-CEM leukemia
COLO 205 colon = system: COLO 205 colon
DU-145 prostate = system: DU-145 prostate
EKVX NSCLC = system: EKVX NSCLC
HCC-2998 colon = system: HCC-2998 colon
HCT-15 colon = system: HCT-15 colon
HL-60(TB) leukemia = system: HL-60(TB) leukemia
HOP-62 NSCLC = system: HOP-62 NSCLC
HOP-92 NSCLC = system: HOP-92 NSCLC
HS 578T breast = system: HS 578T breast
HT29 colon = system: HT29 colon
IGROV1 ovarian = system: IGROV1 ovarian
K-562 leukemia = system: K-562 leukemia
KM12 colon = system: KM12 colon
LOX IMVI melanoma = system: LOX IMVI melanoma
M14 melanoma = system: M14 melanoma
MALME-3M melanoma = system: MALME-3M melanoma
MCF7 breast = system: MCF7 breast
MDA-MB-231 breast = system: MDA-MB-231 breast
MDA-MB-435 melanoma = system: MDA-MB-435 melanoma
MDA-MB-468 breast = system: MDA-MB-468 breast
MOLT-4 leukemia = system: MOLT-4 leukemia
NCI-H226 lung = system: NCI-H226 lung
NCI-H23 lung = system: NCI-H23 lung
NCI-H322M lung = system: NCI-H322M lung
NCI-H460 NSCLC = system: NCI-H460 NSCLC
NCI-H522 lung = system: NCI-H522 lung
NCI/ADR-RES ovarian = system: NCI/ADR-RES ovarian
OVCAR-3 ovarian = system: OVCAR-3 ovarian
OVCAR-4 ovarian = system: OVCAR-4 ovarian
OVCAR-5 ovarian = system: OVCAR-5 ovarian
OVCAR-8 ovarian = system: OVCAR-8 ovarian
PC-3 prostate = system: PC-3 prostate
RPMI-8226 leukemia = system: RPMI-8226 leukemia
RXF 393 renal = system: RXF 393 renal
SF-268 CNS = system: SF-268 CNS
SF-295 CNS = system: SF-295 CNS
SF-539 CNS = system: SF-539 CNS
SK-MEL-28 melanoma = system: SK-MEL-28 melanoma
SK-MEL-5 melanoma = system: SK-MEL-5 melanoma
SK-OV-3 ovarian = system: SK-OV-3 ovarian
SN12C renal = system: SN12C renal
SNB-19 CNS = system: SNB-19 CNS
SNB-75 CNS = system: SNB-75 CNS
SR leukemia = system: SR leukemia
SW-620 colon = system: SW-620 colon
T-47D breast = system: T-47D breast
TK-10 renal = system: TK-10 renal
U251 glioblastoma = system: U251 glioblastoma
UACC-257 melanoma = system: UACC-257 melanoma
UACC-62 melanoma = system: UACC-62 melanoma
UO-31 renal = system: UO-31 renal

## CNS(=O)(=O)Nc1nccc(Cc2c(C)c3ccc(Oc4ncccn4)cc3oc2=O)c1F
786-0 renal
  GI50: 98.4 µM
  TGI: > 100 µM
A498 renal
  GI50: 13.3 µM
  TGI: > 100 µM
A549 NSCLC
  GI50: 0.42 µM
  TGI: > 100 µM
ACHN renal
  GI50: 4.16 µM
  TGI: > 100 µM
BT-549 breast
  GI50: 39.6 µM
  TGI: > 100 µM
CAKI-1 renal
  GI50: 0.319 µM
  TGI: > 100 µM
CCRF-CEM leukemia
  GI50: 5.06 µM
  TGI: 49.1 µM
COLO 205 colon
  GI50: 0.0151 µM
  TGI: 0.586 µM
DU-145 prostate
  GI50: 26.4 µM
  TGI: > 100 µM
EKVX NSCLC
  GI50: 6.39 µM
  TGI: > 100 µM
HCC-2998 colon
  GI50: 0.0142 µM
  TGI: 0.398 µM
HCT-15 colon
  GI50: 4.39 µM
  TGI: > 100 µM
HL-60(TB) leukemia
  GI50: < 0.01 µM
  TGI: > 100 µM
HOP-62 NSCLC
  GI50: 0.289 µM
  TGI: > 100 µM
HOP-92 NSCLC
  GI50: 0.236 µM
  TGI: 3.93 µM
HS 578T breast
  GI50: 7.8 µM
  TGI: > 100 µM
HT29 colon
  GI50: 0.0418 µM
  TGI: > 100 µM
IGROV1 ovarian
  GI50: 0.29 µM
  TGI: > 100 µM
K-562 leukemia
  GI50: 0.433 µM
  TGI: > 100 µM
KM12 colon
  GI50: 0.181 µM
  TGI: > 100 µM
LOX IMVI melanoma
  GI50: 0.164 µM
  TGI: 5.49 µM
M14 melanoma
  GI50: < 0.01 µM
  TGI: 0.102 µM
MALME-3M melanoma
  GI50: < 0.01 µM
  TGI: 0.0124 µM
MCF7 breast
  GI50: > 100 µM
  TGI: > 100 µM
MDA-MB-231 breast
  GI50: 0.0731 µM
  TGI: 43.8 µM
MDA-MB-435 melanoma
  GI50: 0.0305 µM
  TGI: > 100 µM
MDA-MB-468 breast
  GI50: 1.75 µM
  TGI: 5.95 µM
MOLT-4 leukemia
  GI50: 13 µM
  TGI: 82.7 µM
NCI-H226 lung
  GI50: 0.848 µM
  TGI: > 100 µM
NCI-H23 lung
  GI50: 0.0459 µM
  TGI: 2.54 µM
NCI-H322M lung
  GI50: 0.549 µM
  TGI: > 100 µM
NCI-H460 NSCLC
  GI50: 10.2 µM
  TGI: > 100 µM
NCI-H522 lung
  GI50: 12.5 µM
  TGI: > 100 µM
NCI/ADR-RES ovarian
  GI50: 15.2 µM
  TGI: > 100 µM
OVCAR-3 ovarian
  GI50: > 100 µM
  TGI: > 100 µM
OVCAR-4 ovarian
  GI50: 0.413 µM
  TGI: > 100 µM
OVCAR-5 ovarian
  GI50: 0.041 µM
  TGI: > 100 µM
OVCAR-8 ovarian
  GI50: 39.2 µM
  TGI: > 100 µM
PC-3 prostate
  GI50: > 100 µM
  TGI: > 100 µM
RPMI-8226 leukemia
  GI50: 0.0415 µM
  TGI: 20.5 µM
RXF 393 renal
  GI50: 4.82 µM
  TGI: > 100 µM
SF-268 CNS
  GI50: > 100 µM
  TGI: > 100 µM
SF-295 CNS
  GI50: 68.6 µM
  TGI: > 100 µM
SF-539 CNS
  GI50: 12.9 µM
  TGI: > 100 µM
SK-MEL-28 melanoma
  GI50: 0.0137 µM
  TGI: 0.0616 µM
SK-MEL-5 melanoma
  GI50: 0.048 µM
  TGI: 9.68 µM
SK-OV-3 ovarian
  GI50: 21.4 µM
  TGI: > 100 µM
SN12C renal
  GI50: 0.0724 µM
  TGI: > 100 µM
SNB-19 CNS
  GI50: 20.9 µM
  TGI: > 100 µM
SNB-75 CNS
  GI50: > 100 µM
  TGI: > 100 µM
SR leukemia
  GI50: 2.92 µM
  TGI: 40.9 µM
SW-620 colon
  GI50: 0.0167 µM
  TGI: > 100 µM
T-47D breast
  GI50: 3.67 µM
  TGI: 83.3 µM
TK-10 renal
  GI50: 7.49 µM
  TGI: > 100 µM
U251 glioblastoma
  GI50: 5.57 µM
  TGI: > 100 µM
UACC-257 melanoma
  GI50: 0.012 µM
  TGI: 0.0529 µM
UACC-62 melanoma
  GI50: 0.012 µM
  TGI: 0.138 µM
UO-31 renal
  GI50: 14 µM
  TGI: > 100 µM
